From US20260102501A1, “ANTI-CANCER NUCLEAR HORMONE RECEPTOR-TARGETING COMPOUNDS” (Nuvation Bio Inc., priority 2022, published 2026)
Residue numbers refer to the chain shown, from its start. pIC50: −log10 of the molar value. Read-outs that look alike come from different tables or passages of the source.

How the values were obtained:
[1] = target: T1, Progesterone PR-B receptors from human breast carcinoma T47D cells (Homo sapiens, UniProt P06401); assay: PR binding assay ([3H] Progesterone displacement)
T1 sequence (P06401 1-933): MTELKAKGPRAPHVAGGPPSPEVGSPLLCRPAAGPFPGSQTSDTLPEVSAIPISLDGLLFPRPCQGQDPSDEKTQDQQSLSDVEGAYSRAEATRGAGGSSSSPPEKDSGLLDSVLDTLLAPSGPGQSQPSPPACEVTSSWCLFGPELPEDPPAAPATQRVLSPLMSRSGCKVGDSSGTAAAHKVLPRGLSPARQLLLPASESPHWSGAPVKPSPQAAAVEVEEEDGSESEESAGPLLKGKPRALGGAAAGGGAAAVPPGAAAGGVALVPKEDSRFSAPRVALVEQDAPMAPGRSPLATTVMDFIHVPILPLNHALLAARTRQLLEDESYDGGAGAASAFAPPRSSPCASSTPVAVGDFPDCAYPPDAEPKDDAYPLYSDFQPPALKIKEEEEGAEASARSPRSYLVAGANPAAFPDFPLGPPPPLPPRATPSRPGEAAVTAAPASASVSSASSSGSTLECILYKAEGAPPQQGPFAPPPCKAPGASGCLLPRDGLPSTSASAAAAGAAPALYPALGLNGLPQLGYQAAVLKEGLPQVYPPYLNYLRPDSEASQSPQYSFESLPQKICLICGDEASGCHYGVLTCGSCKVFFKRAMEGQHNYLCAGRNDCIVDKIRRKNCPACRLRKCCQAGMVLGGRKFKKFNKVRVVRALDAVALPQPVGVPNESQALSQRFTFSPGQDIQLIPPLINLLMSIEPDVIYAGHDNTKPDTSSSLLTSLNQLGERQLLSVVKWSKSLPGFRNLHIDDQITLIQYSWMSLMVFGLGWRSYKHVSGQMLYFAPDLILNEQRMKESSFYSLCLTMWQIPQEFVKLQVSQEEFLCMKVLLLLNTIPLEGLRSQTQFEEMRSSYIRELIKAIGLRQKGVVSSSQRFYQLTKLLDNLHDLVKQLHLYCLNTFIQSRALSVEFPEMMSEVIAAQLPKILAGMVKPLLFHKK

[2] = target: T2, full-length androgen receptor (HEK293 cells stably expressing) (Homo sapiens, UniProt P10275); assay: AR antagonism assay (luciferase reporter)
T2 sequence (P10275 1-920): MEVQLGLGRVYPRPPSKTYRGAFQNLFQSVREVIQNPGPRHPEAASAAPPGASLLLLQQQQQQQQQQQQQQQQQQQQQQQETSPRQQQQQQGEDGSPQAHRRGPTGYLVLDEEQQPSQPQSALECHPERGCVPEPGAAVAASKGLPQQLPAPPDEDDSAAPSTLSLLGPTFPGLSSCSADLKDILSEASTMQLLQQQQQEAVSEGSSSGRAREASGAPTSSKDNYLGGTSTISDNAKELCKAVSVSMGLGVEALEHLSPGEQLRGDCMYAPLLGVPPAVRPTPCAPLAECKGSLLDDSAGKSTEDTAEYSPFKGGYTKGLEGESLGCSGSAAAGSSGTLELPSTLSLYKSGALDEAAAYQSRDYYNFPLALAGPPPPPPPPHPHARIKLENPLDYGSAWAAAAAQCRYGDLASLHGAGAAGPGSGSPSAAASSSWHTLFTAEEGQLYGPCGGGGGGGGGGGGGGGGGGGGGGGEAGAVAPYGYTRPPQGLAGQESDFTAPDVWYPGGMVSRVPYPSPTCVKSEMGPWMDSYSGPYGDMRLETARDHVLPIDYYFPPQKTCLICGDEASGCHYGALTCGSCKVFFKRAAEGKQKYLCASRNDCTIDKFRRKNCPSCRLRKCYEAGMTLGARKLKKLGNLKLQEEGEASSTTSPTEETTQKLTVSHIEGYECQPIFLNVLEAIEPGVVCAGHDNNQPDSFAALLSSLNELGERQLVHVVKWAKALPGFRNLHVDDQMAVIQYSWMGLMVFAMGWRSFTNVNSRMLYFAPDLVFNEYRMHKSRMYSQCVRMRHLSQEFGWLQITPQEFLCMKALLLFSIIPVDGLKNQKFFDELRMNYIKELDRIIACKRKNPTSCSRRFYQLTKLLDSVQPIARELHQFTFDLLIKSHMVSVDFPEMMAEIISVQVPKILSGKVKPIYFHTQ

IEC6 cells = assay: Cell viability assay (CellTiterGlo); details: Rattus norvegicus, IEC-6, 144 h, read-out: IEC-6 (IC50, nM)
[3] = target: T3, ligand binding domain of the glucocorticoid receptor (HEK293 cells stably expressing) (Homo sapiens, UniProt P04150); assay: GR antagonism assay (luciferase reporter)
T3 sequence (P04150 524-758 limits assumed): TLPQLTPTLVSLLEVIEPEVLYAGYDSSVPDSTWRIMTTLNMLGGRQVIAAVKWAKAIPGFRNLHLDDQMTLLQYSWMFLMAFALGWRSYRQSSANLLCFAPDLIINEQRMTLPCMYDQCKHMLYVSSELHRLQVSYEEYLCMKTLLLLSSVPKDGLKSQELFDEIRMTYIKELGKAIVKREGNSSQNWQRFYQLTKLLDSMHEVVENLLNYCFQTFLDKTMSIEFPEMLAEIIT
Description: HEK293 cells stably expressing the ligand binding domain of the glucocorticoid receptor were seeded at a density of 40000 cells/well in the assay plate. The assay plate was then incubated at 37° C., 5% CO2 for 30 minutes. Dexamethasone was added to the assay plate at 1.5 nM final concentration and the assay plate incubated at 37° C., 5% CO2 for 20 h. After the incubation period, Dual-glo luciferase reagent was added to the assay plate and mixed at room temperature for 20 minutes on an orbital shaker, before reading out on the En Vision plate reader. 50 μL of Stop & Glo reagent was added to assay plate, mixed at room temperature for 20 minutes, and read on the Envision plate reader.

T47D cells = assay: Cell viability assay (CellTiterGlo); assay type: cell-based; details: Homo sapiens, 144 h; for pIC50: 6 days incubation, CellTiterGlo, read-out: T47D (IC50)
[4] = target: T4, AR (cytosol from LnCaP cells) (Homo sapiens, UniProt P10275, T878A); assay: AR binding assay (3H-R1881 displacement)
T4 sequence (P10275 1-920 T878A): T2 sequence (P10275 1-920) with T878A
Description: The plate was then centrifuged at 3000 rpm for 30 minutes at 4° C.

22Rv1 cells = assay: Cell viability assay (CellTiterGlo); details: Homo sapiens, 22Rv1, 144 h, read-out: 22RV1 (IC50, nM)
Description: Cell viability assay: LNCap, 22Rv1, MCF7, MDAMB361, T47D, and IEC6 cells were seeded at a density of 500-2000 cells/well in 96 well plates, and a ‘T0’ (timepoint 0) was included along with the assay plate. The plates were then incubated at 37° C., 5% CO2 in a cell culture incubator overnight. On the next day, the ‘T0’ plate was assayed using CellTiterGlo (Promega, Inc) according to the manufacturer's instructions. The appropriate compounds were diluted in DMSO and added to the assay plate (final DMSO concentration of 0.1-0.2%) on the next day. The assay plates were incubated for 6 days at 37° C., 5% CO2. After the incubation period, the plates were assayed using CellTiterGlo (Promega, Inc) according to the manufacturer's instructions and luminescence was read on the En Vision plate reader. […] GraphPadPrism was used to analyze the data and determine GI50/IC50 values.

LNCap cells = assay: Cell viability assay (CellTiterGlo); assay type: cell-based; details: Homo sapiens, 144 h, 6 days incubation, CellTiterGlo, read-out: LNCap (IC50)

SMILES	pIC50 [1]	pIC50 [2]	IC50 (IEC6 cells) [nM]	pIC50 [3]	IC50 (T47D cells; read-out: T47D (IC50, nM)) [nM]	pIC50 [4]	IC50 (22Rv1 cells) [nM]	pIC50 (LNCap cells)	pIC50 (T47D cells)
CC[C@@]1(O)C(=O)OCc2c1cc1n(c2=O)Cc2cc3c(CN(C)C)c(OC(=O)N4CCN(C(=O)[C@H](CCCNC(N)=O)NC(=O)[C@@H](NCCCCCCN(C)c5ccc([C@H]6C[C@@]7(C)[C@@H](CC[C@]7(OC(C)=O)C(C)=O)[C@@H]7CCC8=CC(=O)CCC8=C76)cc5)C(C)C)CC4)ccc3nc2-1 [Compound 39, (S)-10-((dimethylamino)methyl)-4-ethyl-4-hydroxy-3,14-dioxo-3,4,12,14-tetrahydro-1H-pyrano[3′,4′:6,7]indolizino[1,2-b]quinolin-9-yl 4-((S)-2-((S)-2-((6-((4-((8S,11R,13S,14S,17R)-17-acetoxy-17-acetyl-13-methyl-3-oxo-2,3,6,7,8,11,12,13,14,15,16,17-dodecahydro-1H-cyclopenta[a]phenanthren-11-yl)phenyl)(methyl)amino)hexyl)amino)-3-methylbutanamido)-5-ureidopentanoyl)piperazine-1-carboxylate]	> 8.00	< 6.00	> 1000	6.00 to 7.00	101 to 1000	7.00 to 8.00	101 to 1000	–	–
CC[C@@]1(O)C(=O)OCc2c1cc1n(c2=O)Cc2cc3c(CN4CCN(CCCCCCN(C)c5ccc([C@H]6C[C@@]7(C)[C@@H](CC[C@]7(OC(C)=O)C(C)=O)[C@@H]7CCC8=CC(=O)CCC8=C76)cc5)CC4)cccc3nc2-1 [Compound 38, (8S,11R,13S,14S,17R)-17-acetyl-11-(4-((6-(4-(((S)-4-ethyl-4-hydroxy-3,14-dioxo-3,4,12,14-tetrahydro-1H-pyrano[3′,4′:6,7]indolizino[1,2-b]quinolin-10-yl)methyl)piperazin-1-yl)hexyl)(methyl)amino)phenyl)-13-methyl-3-oxo-2,3,6,7,8,11,12,13,14,15,16,17-dodecahydro-1H-cyclopenta[a]phenanthren-17-yl acetate]	> 8.00	< 6.00	> 1000	7.00 to 8.00	–	> 8.00	–	6.00 to 7.00	6.00 to 7.00
CC[C@@]1(O)C(=O)OCc2c1cc1n(c2=O)Cc2c-1nc1cc(F)c(C)c3c1c2[C@@H](NC(=O)CN1CCN(CCCCCCN(C)c2ccc([C@H]4C[C@@]5(C)[C@@H](CC[C@]5(OC(C)=O)C(C)=O)[C@@H]5CCC6=CC(=O)CCC6=C54)cc2)CC1)CC3 [Compound 37, (8S,11R,13S,14S,17R)-17-acetyl-11-(4-((6-(4-(2-(((1S,9S)-9-ethyl-5-fluoro-9-hydroxy-4-methyl-10,13-dioxo-2,3,9,10,13,15-hexahydro-1H,12H-benzo[de]pyrano[3′,4′:6,7]indolizino[1,2-b]quinolin-1-yl)amino)-2-oxoethyl)piperazin-1-yl)hexyl)(methyl)amino)phenyl)-13-methyl-3-oxo-2,3,6,7,8,11,12,13,14,15,16,17-dodecahydro-1H-cyclopenta[a]phenanthren-17-yl acetate]	> 8.00	6.00 to 7.00	101 to 1000	7.00 to 8.00	–	> 8.00	–	6.00 to 7.00	7.00 to 8.00
